Source: patent US11912679B2, “Aryl alkynamide derivatives” (Astellas Pharma, Inc., priority 2022, dated 2024)

How the values were obtained:
IFNβ production = assay: Test on IFNβ production in mice plasma (DMXAA-induced); format: in vivo; conditions: male C57BL/6J mice, 1 mg/kg oral, DMXAA 20 mg/kg i.p. after 1 hour, plasma 4 hours later
Description: Male C57BL/6J mice (8-12-weeks-old) were administered orally either vehicle or 1 mg/kg of test compounds. After 1 hour, 5,6-Dimethylxanthenone-4-acetic acid (DMXAA) (BLD Pharmatech Ltd, BD126695) was administered intraperitoneally at a dose of 20 mg/kg. Four hours later, the mice were euthanized, and the plasma was collected. Plasma concentration of IFNβ was measured by an enzyme-linked immunosorbent assay method using an AlphaLISA Mouse IFNβ Detection Kit (Parkin Elmer, AL586C), and the inhibition ratio to the vehicle administration group was calculated.

IRF pathway of THP-1 = assay: Test on the activity of IRF pathway of THP-1 (THP1-Dual reporter cells stimulated with 2'3'-cGAMP); format: cell-based; conditions: Homo sapiens, PMA-treated, 2'3'-cGAMP 5 ug/mL, QUANTI-Luc readout, read-out: IC50 of inhibition of the activity of IRF pathway
Description: 0.3 uM of PMA (phorbol myristate acetate, SIGMA, P1585) was added to THP1-Dual™ cells (NF-κB-SEAP IRF-Luc Reporter Monocytes, Invivogen, thpd-nfis), and the cells were cultured at 37° C. for 1 day in RPMI1640 with 10% Fetal Bovine Serum (FBS). A compound with a known concentration was added, and the cells were incubated at room temperature for 1 hour. Mammalian (non-canonical) CDN, cyclic [G(2′,5′)pA(3′,5′)p] (2′3′-cGAMP, Invivogen, tlrl-nacga23) was added to a final concentration of 5 ug/mL, and the cells were cultured at 37° C. On the following day, QUANTI-Luc™ (Secreted luciferase detection medium, Invivogen, rep-qlc) was added to the culture solution and the activity of IRF pathway was measured using a microplate reader. The inhibition ratio at each concentration was determined, where the activity of IRF pathway with no addition of the test compound or 2′3′-cGAMP was defined as 100% inhibition and the activity of IRF pathway with no addition of the test compound and with addition of 2′3′-cGAMP was defined as 0% inhibition. The IC50 value was calculated by sigmoid […] model non-linear regression analysis.

saliva production = assay: Test on drug-induced Sjogren's syndrome-like salivary dysfunction in mice; format: in vivo; conditions: female C57BL/6J mice, DMXAA 20 mg/kg s.c. four times weekly, test compound oral once a day for 8 days
Description: Female C57BL/6J mice (8-10-weeks-old) were injected subcutaneously with 20 mg/kg of DMXAA or its vehicle, 5% NaHCO3, four times at weekly intervals. From the day after the last DMXAA challenge, mice were orally administered the test compound or its vehicle once a day for 8 days. On the following day, saliva was collected from mice using a cotton swab under awake conditions, and saliva weight during 15 min was measured and evaluated as an indicator of salivary gland function.

Structure (SMILES) | IC50 (IRF pathway of THP-1) | Inh (%): inhibition ratio of the production of IFNβ to the vehicle administration group (IFNβ production) | saliva production (saliva weight during 15 min) (saliva production)
O=C(C#Cc1ccc(-c2ccccc2)c(C(F)(F)F)c1)NC[C@H](O)CO [Example 35, N-[(2S)-2,3-dihydroxypropyl]-3-[2-(trifluoromethyl)[1,1′-biphenyl]-4-yl]prop-2-ynamide] | 466 nM | 83% | –
N=S1(=O)CCN(C(=O)C#Cc2ccc(-c3ccccc3)c(C(F)(F)F)c2)CC1 [Example 99, 1-imino-4-{3-[2-(trifluoromethyl)[1,1′-biphenyl]-4-yl]prop-2-ynoyl}-1λ^6-thiomorpholin-1-one] | 102 nM | 68% | significantly improved saliva production
NC(=O)C1CCN(C(=O)C#Cc2ccc(-c3ccccc3)c(C(F)(F)F)c2)CC1 [Example 34, 1-{3-[2-(trifluoromethyl)[1,1′-biphenyl]-4-yl]prop-2-ynoyl}piperidine-4-carboxamide] | 230 nM | 90% | significantly improved saliva production
O=C(C#Cc1ccc(-c2ccccc2)c(C(F)(F)F)c1)N[C@H]1CCNC1=O [Example 12] | 385 nM | – | –
O=C(C#Cc1ccc(-c2ccccc2)c(O)c1)N1C[C@@H](O)[C@@H](O)C1 [Example 121] | 7780 nM | – | –

Second part, led by results:

IC50 (IRF pathway of THP-1) | Structure (SMILES) | Inh (%): inhibition ratio of the production of IFNβ to the vehicle administration group (IFNβ production) | saliva production (saliva weight during 15 min) (saliva production)
615 nM | O=C(C#Cc1ccc(-c2ccccc2)c(C(F)(F)F)c1)NC[C@@H](O)CO [Example 36, N-[(2R)-2,3-dihydroxypropyl]-3-[2-(trifluoromethyl)[1,1′-biphenyl]-4-yl]prop-2-ynamide] | 85% | –
201 nM | O=C(C#Cc1ccc(-c2ccccc2)c(C(F)(F)F)c1)N1C[C@@H](O)[C@H](O)C1 [Example 43, 1-[(3R,4R)-3,4-dihydroxypyrrolidin-1-yl]-3-[2-(trifluoromethyl)[1,1′-biphenyl]-4-yl]prop-2-yn-1-one] | 87% | –
174 nM | O=C(C#Cc1ccc(-c2ccccc2)c(C(F)(F)F)c1)N1C[C@H](O)[C@@H](O)C1 [Example 44, 1-[(3S,4S)-3,4-dihydroxypyrrolidin-1-yl]-3-[2-(trifluoromethyl)[1,1′-biphenyl]-4-yl]prop-2-yn-1-one] | 82% | –
150 nM | O=C(C#Cc1ccc(-c2ccccc2)c(C(F)(F)F)c1)N1CC(CO)(CO)C1 [Example 46, 1-[3,3-bis(hydroxymethyl)azetidin-1-yl]-3-[2-(trifluoromethyl)[1,1′-biphenyl]-4-yl]prop-2-yn-1-one] | 69% | –
136 nM | O=C(C#Cc1ccc(-c2ccccc2)c(C(F)(F)F)c1)N1C[C@@H](O)[C@@H](O)C1 [Example 33, 1-[(3R,4S)-3,4-dihydroxypyrrolidin-1-yl]-3-[2-(trifluoromethyl)[1,1′-biphenyl]-4-yl]prop-2-yn-1-one] | 92% | significantly improved saliva production
